According to US20090076130A1, “COMPOUNDS FOR THE INHIBITION OF HISTONE DEACETYLASE” (NATUREWISE BIOTECH & MEDICALS CORPORATION, priority 2007, published 2009):

System: cyclinD1, cyclinB1, p21
Test: RT-PCR of cell cycle regulator genes in C6 glioma cells
Format: cell-based, rat
Conditions: GAPDH internal control
Description: For the rat C6 glioma cells, the cell cycle related to mRNA expression was examined by RT-PCR. The total RNAs were isolated from the treated C6 cells by using the RNeasy Mini Kit (Qiagen) according to the manufacturer's instructions. The cDNAs were produced from 500 ng of total RNAs using ReverTra-Plus-™ (TOYOBO). The RT product (1 μl) was amplified by PCR with primers to analyze several genes of cell cycle by using GAPDH as an internal control. According to the results of FIG. 3, NBM-HD-1 can modulate the expression of some cell cycle regulators. […] On the contrary, the expression of p21 was increased.

## COc1cc2c(c(OC)c1CCC(C)(C)O)C(=O)C[C@@H](c1ccc(OC)c(OC)c1C/C=C(\C)CCCC(C)(C)O)O2 [NBM-HD-1]
  expression of cyclinD1 and cyclinB1: decrease the expression of cyclinD1 and cyclinB1 in a dose-dependent manner
  expression of p21: increased
